The values below are quoted from earlier work in patent US6756428B2, “Degradable plastics possessing a microbe-inhibiting quality” (Seefar Technologies, Incorporated, priority 1999, dated 2004).

Converted amounts (≈) assume the structure as drawn. Like-named read-outs stand apart in the source and are kept apart here. Where only a bound is given, the exact number is not on record here.

Data set [1] concerns fungus Aspergillus niger.
Data set [2] concerns Staphylococcus aureus bacteria.
Data set [3] has as its system Pseudomonas aeruginosa bacteria. The following applies: bacterium P aeruginosa.
Data set [4] concerns dogs.

As for `Cc1ccc(S(=O)(=O)C(I)I)cc1` [DIMTS, diiodomethyl-p-tolylsulphone], for the setting “acetone, 25° C.”, the solubility in acetone is 350 mg/mL (≈ 829 mM). For the setting “25° C.”, the solubility in ethanol is 20 mg/mL (≈ 47.4 mM) and the solubility in water is 0.0001 mg/mL (≈ 0.000237 mM). For the same compound, the MIC entry in data set [1] (against the fungus Aspergillus niger) was “about 5 mg/L”. The MIC result in data set [2] (against Staphylococcus aureus bacteria) was “about 50 mg/L”.

In the case of `Oc1cc(Cl)ccc1Oc1ccc(Cl)cc1Cl` [triclosan, 2,4,4″-trichloro-2-hydroxydiphenylether], the “solubility in ethanol” value is on record as “soluble” and the “solubility in water” value is “insoluble”. The “solubility in dilute alkali solution” value (dilute alkali solution) was “sparingly soluble”. Further, the MIC entry in data set [3] is reported as “about 100 ppm”. In data set [4], the LD50 oral toxicity is over 5000 mg/kg. For the same compound, in data set [1] (against A. niger), the MIC entry is recorded as “about 100 ppm”. Moreover, in data set [2] (against S. aureus), the MIC result is given as “about 0.01 ppm”.
